“Also recorded” adds a separate entry of the source.
Experiments:
[1] = accelerated stability study of liquid oxaliplatinum solution packed in flexible bag; format: physicochemical; details: for Appearance of the solution / pH / Impurities by HPLC (%) / L-OHP titre/standard (%) / Oxalic acid titre (%): 2 mg/ml solution, 40° C.
[2] = tolerance of aqueous oxaliplatinum preparations to contact with PVC-based materials; format: physicochemical; details: pharmaceutical preparations in aqueous solution
[3] = 6 Months, HPLC, PA 11/PP bag, 75% RH
[4] = 12 Months, PA 11/PP bag, 75% RH
[5] = 12 Months, HPLC, PA 11/PP bag, 75% RH
[6] = Week 0, HPLC, PA 11/PP bag, 75% RH
[7] = Week 1, HPLC, PA 11/PP bag, 75% RH
[8] = Week 2, HPLC, PA 11/PP bag, 75% RH
[9] = Week 3, HPLC, PA 11/PP bag, 75% RH
[10] = Week 4, HPLC, PA 11/PP bag, 75% RH
[11] = Week 5, HPLC, PA 11/PP bag, 75% RH
[12] = Week 12, HPLC, PA 11/PP bag, 75% RH

O=C1[O][Pt]2([NH][C@@H]3CCCC[C@H]3[NH]2)[O]C1=O (relative stereo) [oxaliplatinum, cis-oxalato(trans-1-1-diaminocyclohexane) platinum(II)]
Appearance of the solution ([1]; 6 Months, PA 11/PP bag, 75% RH): Clear, | pH ([1]; 6 Months, PA 11/PP bag, 75% RH): 5.20 | Impurities by HPLC (%) [1, 3]: 0.5% | L-OHP titre/standard (%) [1, 3]: 98.9% | Oxalic acid titre (%) [1, 3]: <0.1% | Appearance of the solution [1, 4]: Clear, | pH [1, 4]: 5.30 | Impurities by HPLC (%) [1, 5]: 0.6% | L-OHP titre/standard (%) [1, 5]: 98.5% | Oxalic acid titre (%) [1, 5]: <0.1% | maximum percentage of apparent impurities ([1]; HPLC): ≤ 2% | Appearance of the solution ([1]; Week 0, 100 ml PA 11/PP bag, 75% relative humidity): Clear, | pH ([1]; Week 0, PA 11/PP bag, 75% RH): 5.56 | Impurities by HPLC (%) [1, 6]: 0.10% | L-OHP titre/standard (%) [1, 6]: 99.7% | Oxalic acid titre (%) [1, 6]: <0.1% | Appearance of the solution ([1]; Week 1, PA 11/PP bag, 75% RH): Clear, | pH ([1]; Week 1, PA 11/PP bag, 75% RH): 5.10 | Impurities by HPLC (%) [1, 7]: 0.60% | L-OHP titre/standard (%) [1, 7]: 100.1% | Oxalic acid titre (%) [1, 7]: <0.1% | Appearance of the solution ([1]; Week 2, PA 11/PP bag, 75% RH): Clear, | pH ([1]; Week 2, PA 11/PP bag, 75% RH): 5.24 | Impurities by HPLC (%) [1, 8]: 0.50% | L-OHP titre/standard (%) [1, 8]: 100.0% | Oxalic acid titre (%) [1, 8]: <0.1% | Appearance of the solution ([1]; Week 3, PA 11/PP bag, 75% RH): Clear, | pH ([1]; Week 3, PA 11/PP bag, 75% RH): 5.22 | Impurities by HPLC (%) [1, 9]: 0.50% | L-OHP titre/standard (%) [1, 9]: 100.9% | Oxalic acid titre (%) [1, 9]: <0.1% | Appearance of the solution ([1]; Week 4, PA 11/PP bag, 75% RH): Clear, | Impurities by HPLC (%) [1, 10]: 0.48% | L-OHP titre/standard (%) [1, 10]: 99.3% | Oxalic acid titre (%) [1, 10]: <0.1% | Appearance of the solution ([1]; Week 5, PA 11/PP bag, 75% RH): Clear, | pH ([1]; Week 5, PA 11/PP bag, 75% RH): 5.23 | Impurities by HPLC (%) [1, 11]: 0.45% | L-OHP titre/standard (%) [1, 11]: 97.7% | Oxalic acid titre (%) [1, 11]: <0.1% | Appearance of the solution ([1]; Week 12, PA 11/PP bag, 75% RH): Clear, | pH ([1]; Week 12, PA 11/PP bag, 75% RH): 5.35 | Impurities by HPLC (%) [1, 12]: 0.40% | L-OHP titre/standard (%) [1, 12]: 99.3% | Oxalic acid titre (%) [1, 12]: <0.1% | period of stability of the liquid solution packed in a flexible bag ([1]; liquid solution in flexible bag): stable for a period extending to more than three months, and even to more than six months; also recorded: stable for at least one year | appearance of the solution over the whole period ([1]; observed for twelve months, flexible bag): clarity and the absence of coloration | stability compared with solution packed in a glass bottle ([1]; same conditions, FIG. 6 vs FIG. 7): stability analogous | tolerance of contact with PVC-based materials [2]: cannot tolerate being in contact with PVC-based materials

Reference: patent publication US6866857B1, “Oxalipatinum preparation packaging” (Debiopharm S.A., priority 1998, dated 2005)
